Reference: patent US20230365592A1 (Agios Pharmaceuticals, Inc., priority 2022, published 2023)
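Also: after compound treatment, cells received sepiapterin plus isotope-labelled Phenylalanine for 4 hours, then labelled Tyrosine in the medium was quantified, 10-point 2-fold dilution series run in duplicate.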

These compounds were tested against T1, human PAH with the R408W mutation (Homo sapiens, UniProt P00439, R408W) (assay: Cell Based Phenylalanine Flux Assay). Details: A375 cells expressing R408W PAH; 24 hrs with compound, then 20 µM sepiapterin and 800 µM 13C9,15N-Phenylalanine for 4 hours; 13C-Tyrosine by LC-MS; average where tested multiple times; read-out: AC50.
T1 construct: expressed in transfected cells
T1 sequence (P00439 1-452 R408W): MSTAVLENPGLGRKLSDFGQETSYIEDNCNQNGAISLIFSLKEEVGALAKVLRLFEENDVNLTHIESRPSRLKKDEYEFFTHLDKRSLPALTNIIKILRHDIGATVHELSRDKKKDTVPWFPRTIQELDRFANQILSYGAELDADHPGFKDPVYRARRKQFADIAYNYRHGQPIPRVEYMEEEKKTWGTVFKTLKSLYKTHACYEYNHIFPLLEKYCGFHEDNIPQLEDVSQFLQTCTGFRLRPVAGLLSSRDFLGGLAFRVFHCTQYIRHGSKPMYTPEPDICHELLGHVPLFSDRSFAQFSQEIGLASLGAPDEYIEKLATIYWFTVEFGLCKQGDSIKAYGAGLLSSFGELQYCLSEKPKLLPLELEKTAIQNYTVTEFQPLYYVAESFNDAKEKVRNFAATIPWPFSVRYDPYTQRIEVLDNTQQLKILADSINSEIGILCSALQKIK
Method: Compounds were resuspended in DMSO, and 2-fold serial dilutions were performed to generate a 10-point dose curve. Compounds were added to plated cells in a total volume of 100 µl, and a final DMSO concentration of 0.5%. Each compound was tested in duplicate. Following compound addition, cells were placed in a 5% CO2, 37° C. tissue culture incubator for 24 hrs. After the incubation period, 20 µM sepiapterin and 800 µM 13C9,15N-Phenylalanine were added. After 4 hours, cell media was removed. An aliquot of 10 µl of cell media was combined with 200 µl of extraction buffer (80% acetonitrile/20% H2O) for each well. Determination of ^13C-Tyrosine concentration was assessed by liquid chromatography mass spectrometry.
Where a compound was tested multiple times, the average value of the tests is reported.
Work on Cc1nnc(C(=O)N2CCc3[nH]cnc3C2c2cc3cc(C(F)(F)F)ccn3n2)o1 (centres unmarked) yielded an AC50 of 1000 to 5000 nM. Cn1cc(-c2nnc(N3CCc4[nH]cnc4C3c3cc4c(C(F)F)cccn4n3)o2)cn1 (centres unmarked) gave an AC50 greater than 5000 nM. Work on O=C(c1cnn2cc(C3CC3)ccc12)N1CCc2[nH]cnc2C1c1cc2cccc(C(F)(F)F)n2n1 (centres unmarked) yielded an AC50 of 1000 to 5000 nM. Fc1cccc2cc(C3c4nc[nH]c4CCN3c3nnc(-c4ccccn4)o3)nn12 (centres unmarked) was tested, and the AC50 was 1000 to 5000 nM. With Fc1cccnc1-c1nnc(N2CCc3[nH]cnc3C2c2cc3c(C4CC4)cccn3n2)o1 (centres unmarked) the AC50 was greater than 5000 nM.

Same assay, conditions: A375 cells expressing human PAH R408W; 24 hrs compound incubation; 13C-Tyrosine by LC-MS; average where tested multiple times; read-out: AC50
In the case of Cc1ccn2nc([C@H]3c4nc[nH]c4CCN3C(=O)c3nnc(-c4ccccn4)o3)cc2c1 [Example 2385, (R)-(4-(5-methylpyrazolo[1,5-a]pyridin-2-yl)-6,7-dihydro-1H-imidazo[4,5-c]pyridin-5(4H)-yl)(5-(pyridin-2-yl)-1,3,4-oxadiazol-2-yl)methanone], the AC50 was greater than 5000 nM. Cn1cc(-c2nnc(C(=O)N3CCc4[nH]cnc4[C@@H]3c3cc4c(C5CC5)cccn4n3)o2)cn1 [Example 1877, (R)-(4-(4-cyclopropylpyrazolo[1,5-a]pyridin-2-yl)-1,4,6,7-tetrahydro-5H-imidazo[4,5-c]pyridin-5-yl)(5-(1-methyl-1H-pyrazol-4-yl)-1,3,4-oxadiazol-2-yl)methanone] was tested, and the AC50 was greater than 5000 nM. In the case of Cc1cccc2cc([C@@H]3c4nc[nH]c4CCN3c3nnc(C(C)(F)F)o3)nn12 [Example 2329, (S)-2-(1,1-difluoroethyl)-5-(4-(7-methylpyrazolo[1,5-a]pyridin-2-yl)-1,4,6,7-tetrahydro-5H-imidazo[4,5-c]pyridin-5-yl)-1,3,4-oxadiazole], the AC50 was 1000 to 5000 nM. Work on O=C(c1nnc(-c2ccccn2)o1)N1CCc2[nH]cnc2[C@H]1c1cc2c(Br)cccn2n1 [Example 1911, (S)-(4-(4-bromopyrazolo[1,5-a]pyridin-2-yl)-1,4,6,7-tetrahydro-5H-imidazo[4,5-c]pyridin-5-yl)(5-(pyridin-2-yl)-1,3,4-oxadiazol-2-yl)methanone] yielded an AC50 of less than 500 nM. Cc1cccn2nc([C@@H]3c4nc[nH]c4CCN3C(=O)c3nnc(-c4cncnc4)o3)cc12 [Example 1972, (S)-(4-(4-methylpyrazolo[1,5-a]pyridin-2-yl)-1,4,6,7-tetrahydro-5H-imidazo[4,5-c]pyridin-5-yl)(5-(pyrimidin-5-yl)-1,3,4-oxadiazol-2-yl)methanone] gave an AC50 of 500 to 1000 nM. In the case of FC(F)(F)c1cnc(N2CCc3[nH]cnc3[C@H]2c2cc3cccc(C(F)(F)F)n3n2)nc1 [Example 1810, (S)-4-(7-(trifluoromethyl)pyrazolo[1,5-a]pyridin-2-yl)-5-(5-(trifluoromethyl)pyrimidin-2-yl)-4,5,6,7-tetrahydro-1H-imidazo[4,5-c]pyridine], the AC50 was 500 to 1000 nM. With Cn1cc(-c2nc(C3CC3)c(C(=O)N3CCc4[nH]cnc4[C@@H]3c3cc4c(C(F)F)cccn4n3)o2)cn1 [Example 2115, (R)-(4-cyclopropyl-2-(1-methyl-1H-pyrazol-4-yl)oxazol-5-yl)(4-(4-(difluoromethyl)pyrazolo[1,5-a]pyridin-2-yl)-1,4,6,7-tetrahydro-5H-imidazo[4,5-c]pyridin-5-yl)methanone] the AC50 was 1000 to 5000 nM. COc1ccc2c(C(=O)N3CCc4[nH]cnc4[C@@H]3c3cc4cccc(Cl)n4n3)cnn2c1 [Example 2465, (R)-(4-(7-chloropyrazolo[1,5-a]pyridin-2-yl)-6,7-dihydro-1H-imidazo[4,5-c]pyridin-5(4H)-yl)(6-methoxypyrazolo[1,5-a]pyridin-3-yl)methanone] gave an AC50 greater than 5000 nM. For O=C(c1nnc(-c2ccccn2)o1)N1CCc2[nH]cnc2[C@@H]1c1cc2ccc(C(F)(F)F)cn2n1 [Example 2415, (R)-(5-(pyridin-2-yl)-1,3,4-oxadiazol-2-yl)(4-(6-(trifluoromethyl)pyrazolo[1,5-a]pyridin-2-yl)-6,7-dihydro-1H-imidazo[4,5-c]pyridin-5(4H)-yl)methanone], the AC50 was 1000 to 5000 nM.

Same assay, conditions: A375 cells expressing human R408W PAH; 24 hrs compound incubation; 13C-Tyrosine by LC-MS; average where tested multiple times; read-out: AC50
Compound Cc1cccn2nc([C@H]3c4nc[nH]c4CCN3C(=O)c3nnc(C4CC(F)(F)C4)o3)cc12 [Example 1599, (R)-(5-(3,3-difluorocyclobutyl)-1,3,4-oxadiazol-2-yl)(4-(4-methylpyrazolo[1,5-a]pyridin-2-yl)-6,7-dihydro-1H-imidazo[4,5-c]pyridin-5(4H)-yl)methanone] has an AC50 greater than 5000 nM. O=C(c1nnc(-c2cnn(C(F)F)c2)o1)N1CCc2[nH]cnc2[C@@H]1c1cc2cccc(C(F)F)n2n1 [Example 1441, (R)-(5-(1-(difluoromethyl)-1H-pyrazol-4-yl)-1,3,4-oxadiazol-2-yl)(4-(7-(difluoromethyl)pyrazolo[1,5-a]pyridin-2-yl)-6,7-dihydro-1H-imidazo[4,5-c]pyridin-5(4H)-yl)methanone] gave an AC50 greater than 5000 nM. In the case of O=C(c1nnc(-c2cnccn2)o1)N1CCc2[nH]cnc2[C@@H]1c1cc2c(F)cccn2n1 [Example 963, (R)-(4-(4-fluoropyrazolo[1,5-a]pyridin-2-yl)-6,7-dihydro-1H-imidazo[4,5-c]pyridin-5(4H)-yl)(5-(pyrazin-2-yl)-1,3,4-oxadiazol-2-yl)methanone], the AC50 was greater than 5000 nM. Work on Cc1cccn2nc([C@@H]3c4nc[nH]c4CCN3c3ncccn3)cc12 [Example 1618, (S)-4-(4-methylpyrazolo[1,5-a]pyridin-2-yl)-5-(pyrimidin-2-yl)-4,5,6,7-tetrahydro-1H-imidazo[4,5-c]pyridine] yielded an AC50 of less than 500 nM. CC(C)(O)c1nc(C(F)(F)F)c(C(=O)N2CCc3[nH]cnc3[C@H]2c2cc3ccccn3n2)o1 [Example 628, (S)-(2-(2-hydroxypropan-2-yl)-4-(trifluoromethyl)oxazol-5-yl)(4-(pyrazolo[1,5-a]pyridin-2-yl)-6,7-dihydro-1H-imidazo[4,5-c)pyridin-5(4H)-yl)methanone] gave an AC50 of less than 500 nM. Compound Cn1cnc(-c2nnc(C(=O)N3CCc4[nH]cnc4[C@@H]3c3cc4cccc(Cl)n4n3)o2)c1 [Example 1098, (R)-(4-(7-chloropyrazolo[1,5-a]pyridin-2-yl)-6,7-dihydro-1H-imidazo[4,5-c]pyridin-5(4H)-yl)(5-(1-methyl-1H-imidazol-4-yl)-1,3,4-oxadiazol-2-yl)methanone] has an AC50 greater than 5000 nM. With Cc1cccc2cc([C@H]3c4nc[nH]c4CCN3C(=O)c3ocnc3C(F)F)nn12 [Example 793, (R)-(4-(difluoromethyl)oxazol-5-yl)(4-(7-methylpyrazolo[1,5-a]pyridin-2-yl)-6,7-dihydro-1H-imidazo[4,5-c]pyridin-5(4H)-yl)methanone] the AC50 was 500 to 1000 nM. Compound O=C(c1nnc(-c2cnn(C(F)F)c2)o1)N1CCc2[nH]cnc2[C@H]1c1cc2cccc(C(F)(F)F)n2n1 [Example 1040, (S)-(5-(1-(difluoromethyl)-1H-pyrazol-4-yl)-1,3,4-oxadiazol-2-yl)(4-(7-(trifluoromethyl)pyrazolo[1,5-a]pyridin-2-yl)-6,7-dihydro-1H-imidazo[4,5-c]pyridin-5(4H)-yl)methanone] has an AC50 of 500 to 1000 nM. For Cc1ccc2cc([C@@H]3c4nc[nH]c4CCN3C(=O)c3nnc(-c4ccn(C)n4)o3)nn2c1 [Example 814, (S)-(5-(1-methyl-1H-pyrazol-3-yl)-1,3,4-oxadiazol-2-yl)(4-(6-methylpyrazolo[1,5-a]pyridin-2-yl)-6,7-dihydro-1H-imidazo[4,5-c]pyridin-5(4H)-yl)methanone], the AC50 was less than 500 nM. With Cc1cccn2nc([C@H]3c4nc[nH]c4CCN3C(=O)c3nnc(-c4ncccn4)o3)cc12 [Example 1310, (R)-(4-(4-methylpyrazolo[1,5-a]pyridin-2-yl)-6,7-dihydro-1H-imidazo[4,5-c]pyridin-5(4H)-yl)(5-(pyrimidin-2-yl)-1,3,4-oxadiazol-2-yl)methanone] the AC50 was 1000 to 5000 nM. C[C@@H](O)c1nc(C(F)F)c(C(=O)N2CCc3[nH]cnc3[C@H]2c2cc3c(F)cccn3n2)o1 [Example 710, (4-(difluoromethyl)-2-((R)-1-hydroxyethyl)oxazol-5-yl)((s)-4-(4-fluoropyrazolo[1,5-a]pyridin-2-yl)-6,7-dihydro-1H-imidazo[4,5-c]pyridin-5(4H)-yl)methanone] was tested, and the AC50 was less than 500 nM. In the case of Cn1nc(C(F)F)cc1C(=O)N1CCc2[nH]cnc2[C@H]1c1cc2c(C(F)(F)F)cccn2n1 [Example 1370, (S)-(3-(difluoromethyl)-1-methyl-1H-pyrazol-5-yl)(4-(4-(trifluoromethyl)pyrazolo[1,5-a]pyridin-2-yl)-6,7-dihydro-1H-imidazo[4,5-c]pyridin-5(4H)-yl)methanone], the AC50 was less than 500 nM. COc1ccc2c(C(=O)N3CCc4[nH]cnc4[C@@H]3c3cc4cccc(C)n4n3)cnn2c1 [Example 1719, (R)-(6-methoxypyrazolo[1,5-a]pyridin-3-yl)(4-(7-methylpyrazolo[1,5-a]pyridin-2-yl)-6,7-dihydro-1H-imidazo[4,5-c]pyridin-5(4H)-yl)methanone] gave an AC50 of 1000 to 5000 nM. Compound O=C(c1ocnc1C(F)(F)F)N1CCc2[nH]cnc2[C@H]1c1cc2cccc(C(F)(F)F)n2n1 [Example 1176, (S)-(4-(trifluoromethyl)oxazol-5-yl)(4-(7-(trifluoromethyl)pyrazolo[1,5-a]pyridin-2-yl)-6,7-dihydro-1H-imidazo[4,5-c]pyridin-5(4H)-yl)methanone] has an AC50 of less than 500 nM. O=C(c1nnc(C2CCC2)o1)N1CCc2[nH]cnc2[C@H]1c1cc2cccc(C(F)F)n2n1 [Example 1573, (S)-(5-cyclobutyl-1,3,4-oxadiazol-2-yl)(4-(7-(difluoromethyl)pyrazolo[1,5-a]pyridin-2-yl)-6,7-dihydro-1H-imidazo[4,5-c]pyridin-5(4H)-yl)methanone] gave an AC50 of 500 to 1000 nM.
